Reference: patent US5129951A, “Aromatic aldehydes and alcohols as potato tuber sprout inhibitors” (priority 1991, dated 1992)
“Also recorded” adds a separate entry of the source. Where two headings read alike, the source gives them in different places.

Columns and labels:
potato tubers [1] = experiment: Tuber sprouting 14 days after direct application of aromatic compounds (Example 3); format: in vivo, Solanum tuberosum L. cv `Norchip`; conditions: for % Eyes Sprouted: 25° C., control 98, LSD (0.05) 14
fungi [2] = experiment: Fungal growth on tubers exposed to compounds in headspace gas for 7 days (Example 1); format: in vivo; conditions: 7 days in saturated headspace gas, 25° C.; for Fungal Growth: control ++; on Fungal growth: key: -: no fungi visible; +: = some fungi; ++: heavy fungal growth
Excerpt: (control flasks lacked any compounds).

fungi [3] = experiment: Fungal growth on tubers after removal from exposure to volatilized aromatics (Example 2); format: in vivo
Procedure: (§1) Each treatment consisted of placing the tubers in sealed 9.2 l flasks containing excess levels of the treatment compounds at 25° C. as in Example 1. Three tubers were then removed from each treatment after 1, 2, 4, 7, and 10 days, and placed in flasks containing fresh humidified air (free of any additional volatilized compounds) at 25° C. Control tubers were placed in sealed flasks lacking any added compounds and three were removed after 1 and 10 days. Fourteen days after removal from the sealed flasks containing treatment compounds, all tubers were examined for percentage of eyes sprouted, tuber texture, and fungal growth. Each treatment was replicated once and each experiment was repeated once.

potato tubers [4] = experiment: Tuber sprouting after removal from exposure to volatilized aromatics for 1, 2, 4, 7 or 10 days (Example 2); format: in vivo, Solanum tuberosum L. cv `Norchip`; conditions: 14 days after removal; for % Eyes Sprouted: 25° C., LSD (0.05) 24
Procedure: as §1

fungi [5] = experiment: Fungal growth 14 days after direct application of aromatic compounds (Example 3); format: in vivo
potato tubers [6] = experiment: Tuber texture after removal from exposure to volatilized aromatics (Example 2); format: in vivo, Solanum tuberosum L. cv `Norchip`
Procedure: as §1

potato tubers [7] = experiment: Tuber sprouting after removal from exposure to volatilized aromatics for 1, 2, 4, 7 or 10 days (Example 2); format: in vivo, Solanum tuberosum L. cv `Norchip`; conditions: exposure for 10 days, 75 days after removal
[8] = Theoretical saturated headspace concentration calculated from known vapor pressures; format: physicochemical; conditions: calculated from known vapor pressures by Ideal Gas Law
Procedure: Because these compounds were difficult to quantitate by gas chromatography at the concentration levels in saturated headspaces, theoretical saturated concentrations were calculated by converting known vapor pressures of each compound at 25° C. to molar concentrations using the Ideal Gas Law, […], where n/V is the molar concentration, P is the partial pressure (atm), R is the Ideal Gas constant (0.0821 l atm/mol ° K.), and T is the temperature (° K.).

[9] = cited from earlier work; for Temperature at Which Vapor Pressure Equals 1 mm Hg: vapor pressure 1 mm Hg
potato tubers [10] = experiment: Sprout inhibition of tubers exposed to compounds in headspace gas for 7 days (Example 1); format: in vivo, Solanum tuberosum L. cv `Norchip`; conditions: 7 days in saturated headspace gas, 25° C.; for % Eyes Sprouted: dark, control 100, LSD (0.05) 12
potato tubers [11] = experiment: Tuber texture and quality 14 days after direct application of aromatic compounds (Example 3); conditions: for Tuber Texture: control SS
potato tubers [12] = experiment: Tuber texture/quality after exposure to compounds in headspace gas for 7 days (Example 1); conditions: 7 days in saturated headspace gas, 25° C.
plants = conditions: Putnam and Tang; cited from earlier work
potato tubers [13] = conditions: in vivo
potato tubers [14] = conditions: in vivo; remark: listed apart in the source
[15] = 1 day exposure, 14 days after removal, control +
[16] = 2 days exposure, 14 days after removal
[17] = 4 days exposure, 14 days after removal
[18] = 7 days exposure, 14 days after removal
[19] = 10 days exposure, 14 days after removal, control +
[20] = 100% (pure, sprayed), control +
[21] = 14 days after removal from exposure

## O=Cc1ccccc1 [Benzaldehyde]
Potato tubers [1]; 1% emulsion (dip)
  % Eyes Sprouted: 43%
Potato tubers [1]; 10% emulsion
  inhibition of sprouting: completely inhibited sprouting without damaging the potato tubers
Potato tubers [1]; 10% emulsion (dip)
  % Eyes Sprouted: 0%
Potato tubers [1]; 100% (pure, sprayed)
  % Eyes Sprouted: 0%
Fungi [2]
  effect on fungal growth: prevented any visible fungal growth
  Fungal Growth: -
Fungi [3]; [15]
  Fungal Growth: -
Fungi [3]; [16]
  Fungal Growth: -
Fungi [3]; [17]
  Fungal Growth: -
Fungi [3]; [18]
  Fungal Growth: -
Fungi [3]; [19]
  Fungal Growth: -
Potato tubers [4]; 1 day exposure, control 96
  % Eyes Sprouted: 88%
Potato tubers [4]; 2 days exposure
  % Eyes Sprouted: 42%
Potato tubers [4]; 4 days exposure
  % Eyes Sprouted: 14%
Potato tubers [4]; 7 days exposure
  % Eyes Sprouted: 2%
Potato tubers [4]; 10 days exposure, control 100
  % Eyes Sprouted: 0%
Potato tubers [4]; exposure for 7 or fewer days
  inhibition of tuber sprouting: did not completely inhibit sprouting
Potato tubers [4]; exposure for 10 days
  inhibition of tuber sprouting: completely inhibited sprouting
Fungi [5]; 10% emulsion
  Fungal Growth: heavily covered with fungal growth
Fungi [5]; 10% emulsion (dip), control +
  Fungal Growth: ++
Fungi [5]; [20]
  Fungal Growth: ++
Potato tubers [6]; 1 day treatment, 14 days after removal
  tuber firmness: slightly soft
Potato tubers [7]
  sprouting: remained unsprouted
[8]
  Concentration of Saturated Headspace at 25° C.: 48000 nM
[9]
  Temperature at Which Vapor Pressure Equals 1 mm Hg: 26.2 °C
  Solubility in Water at 25° C.: sl. soluble
Potato tubers [10]
  effect on tuber sprouting: completely inhibited sprouting
  % Eyes Sprouted: 0%
Potato tubers [11]; 10% emulsion
  tuber condition: remained hard, with no necrosis or surface pitting
Potato tubers [11]; 100% (pure, sprayed)
  Tuber Texture: S,N
Potato tubers [12]
  tuber condition: firm and appeared healthy

## O=C(O)c1ccccc1 [Benzoic acid]
plants
  reported allelopathy: allelopathic
Fungi [2]
  effect on fungal growth: present to some extent
  Fungal Growth: +
[8]
  Concentration of Saturated Headspace at 25° C.: 100 nM
[9]
  Temperature at Which Vapor Pressure Equals 1 mm Hg: 96.0 °C
Potato tubers [10]
  effect on tuber sprouting: no significant effect on tuber sprouting; also recorded: little or no inhibition of sprouting
  % Eyes Sprouted: 98%
Potato tubers [12]
  tuber condition: soft to the touch

## OCC=Cc1ccccc1 [Cinnamyl alcohol]
Fungi [2]
  effect on fungal growth: present to some extent
  Fungal Growth: +
[8]
  Concentration of Saturated Headspace at 25° C.: 2400 nM
[9]
  Solubility in Water at 25° C.: soluble
Potato tubers [10]
  effect on tuber sprouting: no significant effect on tuber sprouting
  % Eyes Sprouted: 91%
Potato tubers [13]
  tuber condition: slightly soft

## CC=Cc1ccc(O)c(OC)c1 [Isoeugenol]
Fungi [2]
  effect on fungal growth: especially heavy growth
  Fungal Growth: ++
[8]
  Concentration of Saturated Headspace at 25° C.: 1300 nM
Potato tubers [10]
  effect on tuber sprouting: no significant effect on tuber sprouting
  % Eyes Sprouted: 89%
Potato tubers [13]
  tuber condition: remained firm

## O=Cc1ccccc1O [Salicylaldehyde]
Potato tubers [1]; 1% emulsion (dip)
  % Eyes Sprouted: 0%
Potato tubers [1]; 10% emulsion (dip)
  % Eyes Sprouted: 0%
Potato tubers [1]; 100% (pure, sprayed)
  % Eyes Sprouted: 0%
Fungi [2]
  effect on fungal growth: prevented any visible fungal growth
  Fungal Growth: -
Fungi [3]; [15]
  Fungal Growth: -
Fungi [3]; [16]
  Fungal Growth: -
Fungi [3]; [17]
  Fungal Growth: -
Fungi [3]; [18]
  Fungal Growth: -
Fungi [3]; [19]
  Fungal Growth: -
Fungi [3]; [21]
  Fungal Growth: lacked visible fungal growth
Potato tubers [4]; 1 day exposure, control 96
  % Eyes Sprouted: 0%
Potato tubers [4]; 2 days exposure
  % Eyes Sprouted: 0%
Potato tubers [4]; 4 days exposure
  % Eyes Sprouted: 0%
Potato tubers [4]; 7 days exposure
  % Eyes Sprouted: 0%
Potato tubers [4]; 10 days exposure, control 100
  % Eyes Sprouted: 0%
Potato tubers [4]; after 1 or more days of treatment
  inhibition of tuber sprouting: completely inhibited tuber sprouting
Fungi [5]; 1% emulsion (dip), control +
  Fungal Growth: ++
Fungi [5]; 10% emulsion (dip), control +
  Fungal Growth: -
Fungi [5]; [20]
  Fungal Growth: -
Potato tubers [6]; [21]
  tuber firmness: firm
Potato tubers [7]
  sprouting: remained unsprouted
[8]
  Concentration of Saturated Headspace at 25° C.: 36000 nM
Potato tubers [10]
  effect on tuber sprouting: completely inhibited sprouting
  % Eyes Sprouted: 0%
Potato tubers [11]; 1% emulsion (dip)
  Tuber Texture: S,N
Potato tubers [11]; 10% emulsion (dip)
  Tuber Texture: S,N
Potato tubers [11]; 100% (pure, sprayed)
  Tuber Texture: S,N
Potato tubers [12]
  tuber condition: firm and appeared healthy

## Cc1ccc(C(C)C)c(O)c1 [Thymol]
Potato tubers [1]; 1% emulsion
  inhibition of sprouting: suppressed sprouting
Potato tubers [1]; 1% emulsion (dip)
  % Eyes Sprouted: 0%
Potato tubers [1]; 10% emulsion (dip)
  % Eyes Sprouted: 0%
Fungi [2]
  effect on fungal growth: prevented any visible fungal growth
  Fungal Growth: -
Fungi [3]; [18]
  Fungal Growth: -
Fungi [3]; [19]
  Fungal Growth: -
Potato tubers [14]
  tuber condition: large pitted areas on the tuber surface near each eye
Potato tubers [4]; 1 day exposure, control 96
  % Eyes Sprouted: 83%
Potato tubers [4]; 2 days exposure
  % Eyes Sprouted: 60%
Potato tubers [4]; 4 days exposure
  % Eyes Sprouted: 44%
Potato tubers [4]; 7 days exposure
  % Eyes Sprouted: 6%
Potato tubers [4]; 10 days exposure, control 100
  % Eyes Sprouted: 0%
Potato tubers [4]; exposure for 7 or fewer days
  inhibition of tuber sprouting: did not completely inhibit sprouting
Potato tubers [4]; exposure for 10 days
  inhibition of tuber sprouting: completely inhibited sprouting
Fungi [5]; 1% emulsion (dip), control +
  Fungal Growth: -
Fungi [5]; 10% emulsion (dip), control +
  Fungal Growth: -
Potato tubers [6]; in vivo
  tuber firmness: slightly soft
[8]
  Concentration of Saturated Headspace at 25° C.: 2900 nM
Potato tubers [10]
  effect on tuber sprouting: completely inhibited sprouting
  % Eyes Sprouted: 0%
Potato tubers [12]
  tuber condition: firm and appeared healthy

## COc1cc(C=O)ccc1O [Vanillin]
plants
  reported allelopathy: allelopathic
Fungi [2]
  effect on fungal growth: present to some extent
  Fungal Growth: +
[8]
  Concentration of Saturated Headspace at 25° C.: 100 nM
[9]
  Temperature at Which Vapor Pressure Equals 1 mm Hg: 107.0 °C
  Solubility in Water at 25° C.: sl. soluble
Potato tubers [10]
  effect on tuber sprouting: only slightly suppressed sprouting; also recorded: little or no inhibition of sprouting
  % Eyes Sprouted: 87%
